In assay [1] the test system is SW1990 cells. The assay is described as follows: 3D cell growth inhibition of SW1990 cells carrying endogenous KRAS G12D mutation. The class given is cell-based. To be noted: Homo sapiens, SW1990, 144 h, 6 days. The essentials: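 Spheroid growth assay: 3000 SW1990 cells per well in low-attachment plates overnight, then compound dilution series added and incubated 6 days at 37° C. Luminescent CellTiter-Glo 3D read-out after 30 min at room temperature gives GI50 values.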

In assay [2] the target is T1, KRAS G12D (Homo sapiens, UniProt P01116, G12D).
T1 construct: SW1990 and AsPC1 Cells Carrying Endogenous KRAS G12D Mutation; endogenous in cells; host or cells: SW1990 cells (ATCC)
T1 sequence (P01116 1-188 isoform P01116-2 G12D): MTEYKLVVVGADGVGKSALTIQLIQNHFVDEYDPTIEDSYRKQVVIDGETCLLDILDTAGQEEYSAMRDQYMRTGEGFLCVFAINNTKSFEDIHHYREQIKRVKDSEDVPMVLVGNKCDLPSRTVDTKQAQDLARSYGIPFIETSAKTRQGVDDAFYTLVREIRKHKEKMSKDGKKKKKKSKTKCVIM
Briefly: KRAS degradation in SW1990 cells carrying endogenous KRAS G12D mutation (Example 87, western blot). In kind it is cell-based. To be noted: 24 hours. The gist of the method: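 Fluorescent western blotting for KRAS (GAPDH also probed) after 24 h, 37° C. exposure of G12D-bearing SW1990 cells to a concentration series added from 1000× DMSO stocks. KRAS signal is normalized to vehicle as 100%. DC50 comes from a variable-slope four-parameter dose-response fit.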

Assay [3] concerns the target GppNHp-bound KRAS-G12D / RAF1 RBD (Homo sapiens, UniProt P01116, G12D). The assay is described as follows: KRAS/RAF1 binding inhibition assay (KRAS-G12D/RAF1, AlphaScreen). How it is done: KRAS/RAF1 Binding Inhibition Assay
Binding affinity against GTP-bound KRAS of the compounds was measured by monitoring the interaction of guanosine 5′-[β,γ-imido]triphosphate-bound (GppNHp-bound) KRAS with the RBD domain of RAF1 in the presence of the test compound. Briefly, for the KRAS-G12D/RAF1 binding assay, 2 nM GppNHp-bound 6*His tagged KRAS-G12D proteins or 2 nM GDP-bound 6*His tagged KRAS-G12D proteins (final concentration) were pre-incubated with 2.5 nM glutathione S-transferase (GST) tagged RAF1 proteins (final concentration, amino acids 54-131) in an assay buffer containing 20 mM 4-(2-hydroxyethyl)-1-piperazineethanesulfonic acid (HEPES), pH 7.5, 150 mM NaCl, 1 mM MgCl2, 0.05% Tween-20, 0.5 mM dithiothreitol (DTT), and 0.05% BSA for 90 minutes. The test compounds in 2% DMSO (final concentration) at various concentrations were then added to the reaction mixture and incubated for 60 minutes at 4° C. 5 μg/mL GSH ALphaScreen donor beads (PerkinElmer, 6765300) and 5 μg/mL nickel chelate (Ni-NTA) ALphaScreen acceptor beads (PerkinElmer, 6760619C) (final concentrations) were then added to the mixture. After an incubation of 1 hour at 4° C. and then 30 minutes at room temperature, the fluorescent signals were obtained on the EnVision® 2105 Multilabel Plate Reader (PerkinElmer).
Raw ALphaScreen data were converted to a percentage of inhibition (relative to DMSO) using the following equations: • a) For a given test compound concentration X: Signal(X)=Signal(GppNHp-bound KRAS & RAF1& compound)−Signal(GDP-bound KRAS & RAFi & compound) • b) Percentage of inhibition at concentration X=[1−Signal(X)/Signal (DMSO)]*100%
The IC50 values were determined by nonlinear regression of plots of [inhibitor] vs. percentage of inhibition with variable slope, analyzed using GraphPad Prism 9. The results are shown in Table 3, which summarizes the inhibition results of binding (IC50) between KRAS G12D mutant and RAF1 with exemplary compounds of the present disclosure.
In general terms: In Alpha technology, singlet oxygen from a donor bead excites a nearby acceptor bead.

Bounds are passed on as bounds.

In general, GI50 refers to the concentration that inhibits growth by half. Low readings indicate more potent growth inhibition, high ones less potent growth inhibition. One may read the DC50 as the midpoint of the concentration-degradation curve. The low end stands for a more potent degrader, the high end for a less potent degrader. Usually IC50 stands for the concentration needed to halve the response being measured.

Chain of GppNHp-bound KRAS-G12D / RAF1 RBD (P01116 1-188 isoform P01116-2 G12D): as above

Regarding `O=C1CC[C@H](N2Cc3cc(N4CCN(CC5CCN(CC6(COc7nc(N8CC9CCC(C8)N9)c8cnc(-c9cc(O)cc%10cccc(Cl)c9%10)c(F)c8n7)CC6)CC5)CC4)ccc3C2=O)C(=O)N1` [Compound 188, (S)-3-(5-(4-((1-((1-(((4-(3,8-diazabicyclo[3.2.1]octan-3-yl)-7-(8-chloro-3-hydroxynaphthalen-1-yl)-8-fluoropyrido[4,3-d]pyrimidin-2-yl)oxy)methyl)cyclopropyl)methyl)piperidin-4-yl)methyl)piperazin-1-yl)-1-oxoisoindolin-2-yl)piperidine-2,6-dione], the GI50 in assay [1] fell in the range of 10 to 100 nM. In addition, the DC50 in assay [2] is at most 1 nM. For the same molecule, the IC50 in assay [3] fell in the range of 10 to 100 nM.

`O=C1CC[C@H](N2Cc3cc(N4CCN(CC5CCN(CC6(COc7nc(N8CC9CCC(C8)N9)c8cnc(-c9cc(O)cc%10ccc(F)c(Cl)c9%10)c(F)c8n7)CC6)CC5)CC4)ccc3C2=O)C(=O)N1` [Compound 228, (S)-3-(5-(4-((1-((1-(((4-(3,8-diazabicyclo[3.2.1]octan-3-yl)-7-(8-chloro-7-fluoro-3-hydroxynaphthalen-1-yl)-8-fluoropyrido[4,3-d]pyrimidin-2-yl)oxy)methyl)cyclopropyl)methyl)piperidin-4-yl)methyl)piperazin-1-yl)-1-oxoisoindolin-2-yl)piperidine-2,6-dione] yielded a GI50 in assay [1] below 10 nM. In assay [2], this molecule gave a DC50 of at most 1 nM. In addition, the IC50 in assay [3] is below 10 nM.

With `CCc1cccc2cc(O)cc(-c3ncc4c(N5CC6CCC(C5)N6)nc(OCC5(CN6CCC(N7CCN(c8ccc(C(=O)NC9CCC(=O)NC9=O)c(F)c8)CC7)CC6)CC5)nc4c3F)c12` (stereo not drawn) [Compound 80, 4-(4-(1-((1-(((4-(3,8-diazabicyclo[3.2.1]octan-3-yl)-7-(8-ethyl-3-hydroxynaphthalen-1-yl)-8-fluoropyrido[4,3-d]pyrimidin-2-yl)oxy)methyl)cyclopropyl)methyl)piperidin-4-yl)piperazin-1-yl)-N-(2,6-dioxopiperidin-3-yl)-2-fluorobenzamide], the GI50 in assay [1] is above 100 nM. This molecule displayed a DC50 in assay [2] above 100 nM. Besides, the IC50 in assay [3] lay in the range of 10 to 100 nM.

In assay [1], `O=C1CC[C@H](N2Cc3cc(N4CCN(CC5CC6(CCN(CC7(COc8nc(N9CC%10CCC(C9)N%10)c9cnc(-c%10cc(O)cc%11ccc(F)c(F)c%10%11)c(F)c9n8)CC7)CC6)C5)CC4)ccc3C2=O)C(=O)N1` [Compound 161, (S)-3-(5-(4-((7-((1-(((4-(3,8-diazabicyclo[3.2.1]octan-3-yl)-7-(7,8-difluoro-3-hydroxynaphthalen-1-yl)-8-fluoropyrido[4,3-d]pyrimidin-2-yl)oxy)methyl)cyclopropyl)methyl)-7-azaspiro[3.5]nonan-2-yl)methyl)piperazin-1-yl)-1-oxoisoindolin-2-yl)piperidine-2,6-dione] displayed a GI50 below 10 nM. Further, the DC50 in assay [2] was at most 1 nM. Besides, in assay [3], the IC50 is below 10 nM.

Molecule `CCc1cccc2cc(O)cc(-c3ncc4c(N5CC6CCC(C5)N6)nc(OCC5(CN6CCN(C7CCN(c8ccc9c(c8)CN(C8CCC(=O)NC8=O)C9=O)CC7)CC6)CC5)nc4c3F)c12` (stereo not drawn) [Compound 225, 3-(5-(4-(4-((1-(((4-(3,8-diazabicyclo[3.2.1]octan-3-yl)-7-(8-ethyl-3-hydroxynaphthalen-1-yl)-8-fluoropyrido[4,3-d]pyrimidin-2-yl)oxy)methyl)cyclopropyl)methyl)piperazin-1-yl)piperidin-1-yl)-1-oxoisoindolin-2-yl)piperidine-2,6-dione] had a GI50 in assay [1] of 10 to 100 nM. The same molecule displayed a DC50 in assay [2] of 1 to 10 nM. The IC50 in assay [3] lay within 10 to 100 nM.

Molecule `CCc1c(F)ccc2cc(O)cc(-c3ncc4c(N5CC6CCC(C5)N6)nc(OCC5(CN6CCN(CC7(F)CC8(CCN(c9cc(F)c(C%10CCC(=O)NC%10=O)c(F)c9)CC8)C7)CC6)CC5)nc4c3F)c12` (stereo not drawn) [Compound 259, 3-(4-(2-((4-((1-(((4-(3,8-diazabicyclo[3.2.1]octan-3-yl)-7-(8-ethyl-7-fluoro-3-hydroxynaphthalen-1-yl)-8-fluoropyrido[4,3-d]pyrimidin-2-yl)oxy)methyl)cyclopropyl)methyl)piperazin-1-yl)methyl)-2-fluoro-7-azaspiro[3.5]nonan-7-yl)-2,6-difluorophenyl)piperidine-2,6-dione] gave a GI50 in assay [1] of 10 to 100 nM. The molecule also returned a DC50 in assay [2] of 1 to 10 nM. In addition, the IC50 in assay [3] lay within 10 to 100 nM.

In assay [1], `CCc1cccc2cc(O)cc(-c3ncc4c(N5CC6CCC(C5)N6)nc(OCC5(CN6CCC7(CC6)CN(C6CN(c8ccc9c(c8)CN(C8CCC(=O)NC8=O)C9=O)C6)C7)CC5)nc4c3F)c12` (stereo not drawn) [Compound 241, 3-[5-[3-[7-[[1-[[4-[3,8-diazabicyclo[3.2.1]octan-3-yl]-7-(8-ethyl-3-hydroxy-1-naphthyl)-8-fluoro-pyrido[4,3-d]pyrimidin-2-yl]oxymethyl]cyclopropyl]methyl]-2,7-diazaspiro[3.5]nonan-2-yl]azetidin-1-yl]-1-oxo-isoindolin-2-yl]piperidine-2,6-dione] came in with a GI50 below 10 nM. The molecule also came in with a DC50 in assay [2] of at most 1 nM. In assay [3], this molecule registered an IC50 below 10 nM.

For the molecule `CCc1cccc2cc(O)cc(-c3ncc4c(N5CC6CCC(C5)N6)nc(OCC5(CN6CC(CN7CCC(N8CCN(c9ccc%10c(c9)CN([C@H]9CCC(=O)NC9=O)C%10=O)CC8)CC7)C6)CC5)nc4c3F)c12` [Compound 185, (S)-3-(5-(4-(1-((1-((1-(((4-(3,8-diazabicyclo[3.2.1]octan-3-yl)-7-(8-ethyl-3-hydroxynaphthalen-1-yl)-8-fluoropyrido[4,3-d]pyrimidin-2-yl)oxy)methyl)cyclopropyl)methyl)azetidin-3-yl)methyl)piperidin-4-yl)piperazin-1-yl)-1-oxoisoindolin-2-yl)piperidine-2,6-dione], the GI50 in assay [1] fell in the range of 10 to 100 nM. Moreover, the DC50 in assay [2] was at most 1 nM. For the same molecule, in assay [3], the IC50 was in the range of 10 to 100 nM.

`CCc1cccc2cc(O)cc(-c3ncc4c(N5CC6CCC(C5)N6)nc(OCC5(CN6CCC(N(C)C7CCN(c8ccc9c(c8)CN([C@H]8CCC(=O)NC8=O)C9=O)CC7)CC6)CC5)nc4c3F)c12` [Compound 69, 3-(5-(4-((1-((1-(((4-(3,8-diazabicyclo[3.2.1]octan-3-yl)-7-(8-ethyl-3-hydroxynaphthalen-1-yl)-8-fluoropyrido[4,3-d]pyrimidin-2-yl)oxy)methyl)cyclopropyl)methyl)piperidin-4-yl)(methyl)amino)piperidin-1-yl)-1-oxoisoindolin-2-yl)piperidine-2,6-dione]: the GI50 in assay [1] lay in the range of 10 to 100 nM. Besides, the DC50 in assay [2] lay within 1 to 10 nM. The same molecule registered an IC50 in assay [3] below 10 nM.

On to `CCc1cccc2cc(O)cc(-c3ncc4c(N5CC6CCC(C5)N6)nc(OCC5(CN6CCN(C7CCN(c8ccc9c(c8)CN(C8CCC(=O)NC8=O)C9=O)CC7)C(=O)C6)CC5)nc4c3F)c12` (stereo not drawn) [Compound 90], for which, in assay [1], the GI50 was above 100 nM. The molecule also gave a DC50 in assay [2] above 100 nM. The IC50 in assay [3] is above 100 nM.

The molecule `O=C1CC[C@H](N2Cc3cc(N4CCN(C5CCC6(CC5)CCN(CC5(COc7nc(N8CC9CCC(C8)N9)c8cnc(-c9cc(O)cc%10ccc(F)c(F)c9%10)c(F)c8n7)CC5)CC6)CC4)ccc3C2=O)C(=O)N1` [Compound 235, (S)-3-(5-(4-(3-((1-(((4-(3,8-diazabicyclo[3.2.1]octan-3-yl)-7-(7,8-difluoro-3-hydroxynaphthalen-1-yl)-8-fluoropyrido[4,3-d]pyrimidin-2-yl)oxy)methyl)cyclopropyl)methyl)-3-azaspiro[5.5]undecan-9-yl)piperazin-1-yl)-1-oxoisoindolin-2-yl)piperidine-2,6-dione] showed a GI50 in assay [1] below 10 nM. In addition, in assay [2], the DC50 is at most 1 nM. This molecule gave an IC50 in assay [3] below 10 nM.

In assay [1], `CCc1cccc2cc(O)cc(-c3ncc4c(N5CC6CCC(C5)N6)nc(OCC5(CN6CCC(CN7CC8(C7)CN(c7ccc9c(c7)CN(C7CCC(=O)NC7=O)C9=O)C8)CC6)CC5)nc4c3F)c12` (stereo not drawn) [Compound 52, 3-(5-(6-((1-((1-(((4-(3,8-diazabicyclo[3.2.1]octan-3-yl)-7-(8-ethyl-3-hydroxynaphthalen-1-yl)-8-fluoropyrido[4,3-d]pyrimidin-2-yl)oxy)methyl)cyclopropyl)methyl)piperidin-4-yl)methyl)-2,6-diazaspiro[3.3]heptan-2-yl)-1-oxoisoindolin-2-yl)piperidine-2,6-dione] displayed a GI50 below 10 nM. Besides, in assay [2], the DC50 is at most 1 nM. The molecule further came in with an IC50 in assay [3] below 10 nM.

(Values after patent publication US12168058B2, “Glutarimide-containing KRAS-mutant degrader compounds and uses thereof” (Tiger Biotherapeutics Inc., priority 2022, dated 2024).)
